Results on 1 compound are retold here after EPA's ToxValDB 9.5 (doi:10.2903/j.efsa.2020.5986).

The subject of one data set is Danio rerio. Conditions: subchronic; duration: 30 days; growth.
The subject of a further data set is Colinus virginianus. Conditions: oral.
A further data set deals with Tagia sp. To be noted: chronic/long-term; mortality.
Another data set deals with Apis mellifera. Conditions: acute, mortality.
The test system of the next data set is Daphnia magna. To be noted: chronic/long-term; duration: 21 days; reproduction.
The next data set concerns Rattus norvegicus. Conditions: acute; oral; mortality.
Another data set has as its system Oncorhynchus mykiss. Conditions: acute; duration: 96 hours; mortality.
In another data set the test system is Hypoaspis aculeifer. Conditions: acute; duration: 14 days; mortality.

For `CC(C)=CCC/C(C)=C/CC/C(C)=C/CO` [Farnesol], the NOEC in the data set on Danio rerio is no less than 0.138 mg/L; with Colinus virginianus (reproduction developmental, diet), no less than 111 mg/kg-day; in the data set with Tagia sp., no less than 1000 mg/kg; in the data set on Daphnia magna, 3 mg/L; in the data set on Hypoaspis aculeifer it was 1000 mg/kg. Besides, the LD50 was greater than 2000 mg/kg-day with Colinus virginianus (acute, mortality); greater than 100 µg/piece in the data set on Apis mellifera (dermal); greater than 100 µg/piece in the data set with Apis mellifera (oral, unspecified). Besides, the LC50 with Rattus norvegicus is greater than 2000 mg/kg-day; with Oncorhynchus mykiss, greater than 0.134 µg/mL.
